The source of these data is patent publication US5905085A, “Trans cyclopentanyl deazaadenyl analogs useful as immunosuppressants” (Hoechst Marion Roussel, Inc., priority 1997, dated 1999).

The test system of assay [1] is Tumor Necrosis Factor alpha. Briefly: Inhibition of Tumor Necrosis Factor alpha in LPS-stimulated PBMC (ELISA). Format: cell-based. As to conditions: human PBMC adherent cells, 1 μg/ml LPS from E. coli, 18 hours; read-out: IC50 (TNF-α inhibition). As for the experimental part: Peripheral blood mononuclear cells (PBMC) are isolated from venous blood collected from healthy volunteers in sodium citrate (5 ml of 3.6% sodium citrate for 45 ml of blood) by density gradient centrifugation of 5 minutes at 1500 rpm. The PBMC are resuspended in about 10 ml of RPMI-1640 with antibiotics. Approximately 2×10^6 cells of PBMC are added to tissue culture plates, incubated for 45-60 minutes at 37° C. with 5% CO2, aspirated, and washed twice by adding about 0.5 ml fresh RPMI-1640 with 10% non-mitogenic FBS (RPMI complete) and shaking for 15 to 30 seconds. 1.0 ml RPMI-1640 is added per well to the remaining adherent cells, which are pretreated with test compound solution about 15 minutes prior to endotoxin stimulation (1 μg/ml lipopolysaccharide from E. coli or solvent concentrations equal to those of test compounds.
Cultures are incubated for 18 hours t 37° C. in 5% CO2. Supernatants are tested from TNF-a using a commercial ELISA kit (Cistron, Pine Brook, N.J.). The IC50 is determined using SOFTmax software program.
A general note: In an ELISA, binding on a coated surface is turned into a signal by an enzyme label.

Assay [2] relates to MHC class II antigen on rat macrophages. Briefly: Regulation of MHC class II expression on macrophages (flow cytometry, OX-6/OX-42). Format: cell-based. As for the experimental part:
Using the method of Edwards (J. of Cell Biochemistry 5E, 155(1991)), the ability of a compound of formula (1) to reduce Major Histocompatibility complex (MHC) class II antigen levels on macrophages (M.phi.) obtained from M.tuberculosis-treated rats may be measured. Cells obtained from treated rats are plated into tissue culture for a period of 4 hours to purify adherent cells, then treated with increasing levels of drug for a period of 18 hours. After this incubation period, cells are scraped from the dishes and stained using flow cytometry analysis with various monoclonal antibodies such as OX-6 a monoclonal antibody specific for MHC class II antigens and OX-42 a monoclonal antibody specific for rat macrophages.
(In general: In flow cytometry, cells or beads pass a laser one at a time.)

The subject of assay [3] is rat macrophage antigen presentation to LEW/N rat T-cell hybridoma (Interleukin-2 production). In words: Regulation of antigen presentation to rat T-cell hybridoma (Interleukin-2 production). Format: cell-based. As for the experimental part:
Using the method of Ku (Cellular Immunology 130,(1990)) and a Lewis (LEW/N) rat T-cell hybridoma reactive with the protein methylated bovine serum albumin (mBSA), the ability of a compound of formula (1) to regulate M.phi. antigen presentation in vitro may be measured. Peritoneal macrophages obtained from LEW/N rats are plated into tissue culture and treated with 100 ug of mBSA and drug A control is prepared similarly. After a period of 18 hours the cells are washed and incubated with the T-cell hybridoma for an additional 12 hours. Supernatants from these cultures are obtained and measured for content of Interleukin-2, a T-cell derived lymphokine which is produced by activated T-cells. […] Rat macrophage antigen presentation and the subsequent production of Interleukin-2 are inhibited when drug is administered over a concentration range from 0.1 to 100 uM as illustrated in the following table.

Assay [4] deals with endotoxin-induced septic shock in CFl mice. In words: Regulation of endotoxin lethality (mouse endotoxin lethality model). Type of assay: in vivo. Particulars: 100 mg/kg i.p., pretreated at t = -1 hr; challenge D-galactosamine 18 mg and LPS 50 ng; observed 8-72 hour. As for the experimental part: Using the method of Silverstein, (J. Exp. Med. 173, 357 (1991)) a mouse endotoxin lethality model may be used to determine if a compound of formula (1) has the ability to inhibit endotoxin-induced septic shock which is dependent on the production of Tumor Necrosis Factor-α (TNF-α). CFl mice pretreated at time (t)=-1 hr with drug are challenged with 18 mg of D-glactoseamine and 50 ng of LPS, then observed for death over an 8-72 hour period.

Molecules are shown by their SMILES. pIC50: −log10 of the molar value. Where a name gives a salt, the structure may show the parent alone.

In the case of `Nc1ncnc2c1ncn2[C@@H]1CCC[C@H]1O` (relative stereo) [(±)-Trans-1-(9-adenyl)-2-hydroxycyclopentane, reference compound], the pIC50 (usually −log10 of the IC50, conventionally taken in molar units) in assay [1] was 4.65.

For the compound `Nc1ncnc2c1ncn2[C@@H]1CC[C@@H](O)C1` [(1R,3R)-TRANS-1(9-ADENYL)CYCLOPENTAN-3-OL HYDROCHLORIDE], the “OX-6/OX-42 double positive macrophages” value in assay [2] (10 μM, 18 hours, positive control 59%) is given as 39%. Also, the inhibition at 10 µM was approximately 33% in assay [2] (Rattus norvegicus, Macrophage, 18 h, read-out: reduction of MHC II antigen expression on rat macrophages in vitro compared to positive control) and 48.7% in assay [3] (Rattus norvegicus, T-cell, in vitro concentration 10.0 μM). This compound gave an inhibition at 0.1 µM in assay [3] (Rattus norvegicus, T-cell, in vitro concentration 0.1 μM) of 7.6%. The compound also had an inhibition at 1 µM in assay [3] (Rattus norvegicus, T-cell, in vitro concentration 1.0 μM) of 30.9%. In addition, the inhibition at 100 µM in assay [3] (Rattus norvegicus, T-cell, in vitro concentration 100.0 μM) turned out to be 55.3%. Further, the “Rat macrophage antigen presentation and subsequent production of Interleukin-2” value in assay [3] (concentration range from 0.1 to 100 uM) is “inhibited”. Also, the T-cell activation result in assay [3] (in vitro, mBSA antigen, rat T-cell hybridoma) was “inhibits T-cell activation”. Moreover, the “protection against endotoxin lethality” value in assay [4] is “protects against endotoxin lethality”. Moreover, the pIC50 in assay [1] was 5.05.

With `Nc1nc(Cl)nc2c1ncn2[C@@H]1CC[C@@H](O)C1` [(1R,3R)-Trans-1-[9-(6-amino-2-cholopurinyl)]cyclopentan-3-ol hydrochloride], the pIC50 in assay [1] is 5.39.
